# From ChEMBL document CHEMBL1201862, “PubChem BioAssay data set” (2004)
#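 Cells were grown in 96-well plates and exposed to each compound for 48 hours at five concentrations; endpoints were interpolated linearly between bracketing concentrations, or set to the highest concentration if not reached. Here, GI50 denotes the concentration required for 50% inhibition of growth.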 Activity calls are given as the source filed them. Rule as the data show it: active = GI50 up to about 1.1 µM and inactive = higher.
# Assays:
# Assay in all cases: inhibition of tumour cell growth, NCI panel, 48 h
# A549 = system: A549
# CAKI-1 = system: CAKI-1
# CCRF-CEM = system: CCRF-CEM
# COLO 205 = system: COLO 205
# HCC 2998 = system: HCC 2998
# HCT-15 = system: HCT-15
# HOP-62 = system: HOP-62
# HOP-92 = system: HOP-92
# K562 = system: K562
# Malme-3M = system: Malme-3M
# NCI-H460 = system: NCI-H460
# RXF 393 = system: RXF 393
# SF-268 = system: SF-268
# SF-539 = system: SF-539
# SK-MEL-5 = system: SK-MEL-5
# SNB-19 = system: SNB-19
# SW-620 = system: SW-620
# T47D = system: T47D
# BT-549 = system: BT-549
Compound,GI50 (A549),GI50 (CAKI-1),GI50 (CCRF-CEM),GI50 (COLO 205),GI50 (HCC 2998),GI50 (HCT-15) [µM],GI50 (HOP-62),GI50 (HOP-92),GI50 (K562),GI50 (Malme-3M),GI50 (NCI-H460),GI50 (RXF 393),GI50 (SF-268),GI50 (SF-539),GI50 (SK-MEL-5),GI50 (SNB-19),GI50 (SW-620),GI50 (T47D),GI50 (BT-549)
c1ccc(/N=C2\SC(=NNc3ccccc3)S\C2=N/c2ccccc2)cc1,25.2 µM (inactive),> 100 µM (inactive),> 100 µM (inactive),28.7 µM (inactive),37.8 µM (inactive),> 100,44.5 µM (inactive),70.8 µM (inactive),> 100 µM (inactive),> 100 µM (inactive),15.5 µM (inactive),7.66 µM (inactive),> 100 µM (inactive),62.5 µM (inactive),44.9 µM (inactive),72.6 µM (inactive),> 100 µM (inactive),74.1 µM (inactive),
CC(=O)OC12COC1CC(O)C1(C)C(=O)C(O)C3=C(C)C(O)CC(O)(C(OC(=O)c4ccccc4)C21)C3(C)C (stereo unspecified),7.33 µM (inactive),> 96.2 µM (inactive),3.8 µM (inactive),1.14 µM (inactive),4.08 µM (inactive),> 100,16.6 µM (inactive),> 100 µM (inactive),1.58 µM (inactive),3.78 µM (inactive),2.92 µM (inactive),> 65.6 µM (inactive),3.41 µM (inactive),1.16 µM (inactive),3.44 µM (inactive),5.31 µM (inactive),0.989 µM (active),,
CN1C(=O)CC2CCCN2C1=O (stereo unspecified),> 100 µM (inactive),> 100 µM (inactive),4.27 µM (inactive),> 100 µM (inactive),> 100 µM (inactive),> 100,> 100 µM (inactive),86.9 µM (inactive),> 100 µM (inactive),> 100 µM (inactive),> 100 µM (inactive),> 100 µM (inactive),> 100 µM (inactive),> 100 µM (inactive),> 100 µM (inactive),> 100 µM (inactive),> 100 µM (inactive),> 100 µM (inactive),
C/N=c1/ss/c(=N\C(SC)=[N+](C)C)n1C.[O-][Cl+3]([O-])([O-])[O-],> 100 µM (inactive),54.8 µM (inactive),3.97 µM (inactive),,> 100 µM (inactive),> 100,> 100 µM (inactive),> 100 µM (inactive),17.3 µM (inactive),,4.09 µM (inactive),> 100 µM (inactive),> 100 µM (inactive),,0.419 µM (active),> 100 µM (inactive),> 100 µM (inactive),,
C/C=C/C(=O)[C@@H](O)C(C)C,> 100 µM (inactive),> 100 µM (inactive),,> 100 µM (inactive),> 100 µM (inactive),> 100,,> 100 µM (inactive),> 100 µM (inactive),> 100 µM (inactive),,> 100 µM (inactive),> 100 µM (inactive),,> 100 µM (inactive),> 100 µM (inactive),> 100 µM (inactive),,
CCc1n[nH]c(=O)n1NC(=O)c1ccccc1C(=O)O,> 100 µM (inactive),,> 100 µM (inactive),> 100 µM (inactive),> 100 µM (inactive),> 100,> 100 µM (inactive),> 100 µM (inactive),> 100 µM (inactive),,,> 100 µM (inactive),> 100 µM (inactive),> 100 µM (inactive),> 100 µM (inactive),> 100 µM (inactive),> 100 µM (inactive),,> 100 µM (inactive)
CC(C)(C)OC/C=C(/CO)[C@@H]1C=C[C@H](O)C1,> 100 µM (inactive),> 100 µM (inactive),> 100 µM (inactive),> 100 µM (inactive),> 100 µM (inactive),> 100,> 100 µM (inactive),,> 100 µM (inactive),> 100 µM (inactive),> 100 µM (inactive),,> 100 µM (inactive),> 100 µM (inactive),,> 100 µM (inactive),> 100 µM (inactive),> 100 µM (inactive),> 100 µM (inactive)
COC(=O)c1ccc2c(c1)CC1(C2)Cc2cc3c(cc2C1=O)CCC3 (stereo unspecified),36.7 µM (inactive),14.6 µM (inactive),15 µM (inactive),14.8 µM (inactive),40.3 µM (inactive),34.9,46.5 µM (inactive),28.2 µM (inactive),17.5 µM (inactive),27.4 µM (inactive),37.2 µM (inactive),30.1 µM (inactive),79.6 µM (inactive),> 100 µM (inactive),9.18 µM (inactive),> 100 µM (inactive),60.4 µM (inactive),42.5 µM (inactive),
CCCCCCCCCCOC1C(C(O)CNCCCN(C)C)OC2OC3(CCCCC3)OC21 (stereo unspecified),3.32 µM (inactive),1.75 µM (inactive),1.71 µM (inactive),2 µM (inactive),2.57 µM (inactive),1.69,1.75 µM (inactive),1.07 µM (active),1.63 µM (inactive),1.99 µM (inactive),1.97 µM (inactive),1.93 µM (inactive),2.17 µM (inactive),,1.89 µM (inactive),1.75 µM (inactive),1.74 µM (inactive),2.75 µM (inactive),
CC(C)CCNC(=O)c1ccc(CNC(=O)/C=C/c2ccc(-c3ccccc3[N+](=O)[O-])o2)cc1,68.2 µM (inactive),46.3 µM (inactive),12.2 µM (inactive),> 100 µM (inactive),> 100 µM (inactive),> 100,24.3 µM (inactive),> 10 µM (inactive),82.6 µM (inactive),,> 100 µM (inactive),> 100 µM (inactive),18.6 µM (inactive),,18.1 µM (inactive),22.7 µM (inactive),41.5 µM (inactive),12.2 µM (inactive),
CC1=CCC[C@]2(C)C1=CC(=O)O[C@H]2c1ccoc1,> 100 µM (inactive),> 100 µM (inactive),> 100 µM (inactive),> 100 µM (inactive),> 100 µM (inactive),> 100,> 100 µM (inactive),> 100 µM (inactive),> 100 µM (inactive),> 100 µM (inactive),> 100 µM (inactive),> 100 µM (inactive),> 100 µM (inactive),,> 100 µM (inactive),23.6 µM (inactive),> 100 µM (inactive),> 100 µM (inactive),
COc1cc(S(=O)(=O)Nc2ccc(-c3csc(N4C(=O)C(C)SC4c4ccccc4O)n3)cc2)ccc1Cl (stereo unspecified),> 100 µM (inactive),85.9 µM (inactive),25.9 µM (inactive),25.2 µM (inactive),,36.9,82.6 µM (inactive),31.3 µM (inactive),32.8 µM (inactive),17.9 µM (inactive),,,21.3 µM (inactive),34.8 µM (inactive),32.1 µM (inactive),> 100 µM (inactive),34.8 µM (inactive),13.3 µM (inactive),27 µM (inactive)
Nc1ccc2c(=O)cc(-c3ccc(Br)s3)[nH]c2n1,5.5 µM (inactive),4.46 µM (inactive),2.37 µM (inactive),2.5 µM (inactive),3.39 µM (inactive),2.26,4.86 µM (inactive),12.7 µM (inactive),0.522 µM (active),12.4 µM (inactive),4.16 µM (inactive),3.71 µM (inactive),6.22 µM (inactive),2.16 µM (inactive),1.35 µM (inactive),4.63 µM (inactive),1.12 µM (active),4.16 µM (inactive),
O=C(OC1C#CCSCC#C/C=C\1)c1cnc2ccccc2n1 (stereo unspecified),,,53.6 µM (inactive),14.6 µM (inactive),> 100 µM (inactive),> 100,> 100 µM (inactive),> 100 µM (inactive),19.7 µM (inactive),> 100 µM (inactive),14.1 µM (inactive),79.8 µM (inactive),> 100 µM (inactive),> 100 µM (inactive),,> 100 µM (inactive),> 100 µM (inactive),,> 100 µM (inactive)
CC1C(c2ccccc2)O[B-](F)(c2ccccc2)[NH+]1C (stereo unspecified),> 100 µM (inactive),,> 100 µM (inactive),> 100 µM (inactive),> 100 µM (inactive),> 100,> 100 µM (inactive),> 100 µM (inactive),> 100 µM (inactive),> 100 µM (inactive),> 100 µM (inactive),,> 100 µM (inactive),,> 100 µM (inactive),> 100 µM (inactive),> 100 µM (inactive),> 100 µM (inactive),> 100 µM (inactive)
CC1CCCC2(O1)OC1CC(=O)OC1C1=C2C(=O)c2ccccc2C1=O (stereo unspecified),16.9 µM (inactive),2.84 µM (inactive),1.57 µM (inactive),2.02 µM (inactive),2.37 µM (inactive),2.8,16.4 µM (inactive),,0.63 µM (active),2.45 µM (inactive),25.9 µM (inactive),2.13 µM (inactive),4.02 µM (inactive),5.81 µM (inactive),2.06 µM (inactive),15.6 µM (inactive),1.67 µM (inactive),,
O=C1Cc2c([nH]c3ccc(Br)cc23)-c2cc(Br)ccc2N1,> 100 µM (inactive),> 100 µM (inactive),> 100 µM (inactive),> 100 µM (inactive),> 100 µM (inactive),> 100,,> 100 µM (inactive),> 100 µM (inactive),,> 100 µM (inactive),,> 100 µM (inactive),> 100 µM (inactive),> 100 µM (inactive),> 100 µM (inactive),> 100 µM (inactive),> 100 µM (inactive),> 100 µM (inactive)
